In test [1] the target is T1, human full length recombinant Hsp90 (Homo sapiens, UniProt P07900).
T1 construct: purchased Assay Designs (Ann Arbor, MI, USA); host or cells: E. coli
In words: Competitive fluorescence polarization assay with fluorescent geldanamycin probe (fGDA). Format: binding. To be noted: concentration up to 100 µM, added before or after fGDA. On the procedure:
In an effort to identify the Hsp90 region involved in (+)-lentiginosine binding, we first performed some fluorescence polarization assays using a fluorescent geldanamycin probe (fGDA) to evaluate if this compound could interact with the ATP-binding pocket of Hsp90 [25].
Binding of compound 1 to human full length recombinant Hsp90 was determined by a competitive binding fluorescence polarization assay using a fluorescent geldanamycin probe, as reported elsewhere.

In the next test the target is T2, Hsp90 ATPase activity (Homo sapiens, UniProt P07900).
T2 construct: purchased Assay Designs (Ann Arbor, MI, USA); host or cells: E. coli
In words: ATP hydrolysis inhibition (ADP Hunter Plus assay). In kind it is biochemical. The following applies: 40 nM Hsp90, 100 µM ATP; for inhibition of the ATPase activity of Hsp90: 60 min, 40°C, different concentrations. The procedure:
To evaluate the effect of interacting compounds on Hsp90 biological activity, the ATPase activity of the enzyme was tested in the presence of the most affine compounds (1, 3 and 4); […]. (−)-Lentiginosine was used as negative control.
The Discover RX ADP HunterTM Plus Assay kit was used following the manufacturer’s instructions. […]. ADP generation was measured using a Perkin Elmer LS 55 fluorimeter (540 nm excitation and 620 nm emission). Fluorescence intensity values measured for Hsp90 without any testing compound was assumed as 100% of enzyme activity. The background reaction rate was measured in a reaction lacking enzyme or substrate and subtracted from the experimental rates.

A further test deals with T3, Hsp90 (Homo sapiens, UniProt P07900).
T3 construct: purchased Assay Designs (Ann Arbor, MI, USA); host or cells: E. coli
The experiment in a line: SPR binding assay on immobilized Hsp90. The procedure: Radicicol was used as positive controls.
SPR analyses were performed as describe elsewhere, [38]. Briefly, SPR analyses were performed using a Biacore 3000 optical biosensor equipped with research-grade CM5 sensor chips (GE Healthcare). Using this platform, two separate recombinant Hsp90 surfaces, a BSA surface and an unmodified reference surface were prepared for simultaneous analyses. […] Included in each analysis were multiple blank samples of running buffer alone. Binding experiments were performed at 25°C, using a flow rate of 50 µL min^−1, with 60 s monitoring of association and 200 s monitoring of dissociation. […] Sensorgram elaborations were performed using the Biaevaluation software provided by GE Healthcare.

The next test deals with T4, Hsp90 chaperone activity (Homo sapiens, UniProt P07900).
T4 construct: purchased Assay Designs (Ann Arbor, MI, USA); host or cells: E. coli
The experiment in a line: Citrate synthase thermal aggregation assay (chaperone activity). In kind it is biochemical. The following applies: 0.075 µM CS, 0.075 µM Hsp90, 0.3 µM compound (4-fold molar excess), 43°C, light scattering. The procedure: The ability of compounds 1, 3 and 4 to inhibit the chaperone activity of Hsp90 was also evaluated monitoring the citrate synthase (CS) thermal induced aggregation in the presence of Hsp90 [24], with or without these compounds. […] The spontaneous aggregation of CS at 43°C (♦) and the aggregation of CS at 43°C in the presence of 0.075 µM Hsp90 (Δ) or of 0.075 µM Hsp90 and 0.3 µM compound 1 (▪), 0.3 µM compound 2 (•), 0.3 compound 3 (□), or 0.3 µM compound 4 (○) are shown. Chaperone activity was evaluated as reported elsewhere by monitoring the thermal-induced aggregation of Citrate synthase (CS) in absence or in presence of a stoichiometric amount of Hsp90, and with or without a 4-fold molar excess of each testing compound. Aggregation was initiated by unfolding CS (0.075 µM) incubating the protein in 40 mM HEPES–KOH, pH 7.5 at 43°C. Aggregation was monitored by measuring light scattering at right angles with Perkin Elmer LS 55 fluorimeter in stirred and thermostated quartz cells. Both the emission and excitation wavelengths were set at 500 nm, and the band pass was 2 nm. Kinetics traces reported here are the averages of two measurements.

Setting [2] is: immobilized Hsp90, 25°C, single-site bimolecular model.

Molecules are shown by their SMILES.

Regarding `O[C@@H]1[C@@H](O)CN2CCCC[C@@H]12` [Compound 1, (+)-lentiginosine], the “displacement of fGDA from Hsp90” value in test [1] was “unable to displace fGDA”. On Hsp90 ATPase activity, the “ATPase inhibitory power compared with 17-AAG” value was “inhibitory power higher than that measured for 17-AAG” and the “inhibition of the ATPase activity of Hsp90” value is given as “inhibit the ATPase activity of Hsp90 in a concentration dependent manner”. Besides, at Hsp90 (setting [2]), the Kd came to 24.7 ± 0.6 nM and the koff is listed as 1.86±0.31 10^-3 1/s. For the same compound, the “inhibition of Hsp90 chaperone activity (CS aggregation kinetics)” value (from here on “inhibition … (CS aggregation kinetics)”) at Hsp90 chaperone activity is reported as “inhibition of Hsp90 chaperone activity”.

Consider `O[C@H]1[C@H](O)CN2CCCC[C@H]12` [Compound 2, (−)-lentiginosine], for which, at Hsp90 (0.020 to 1 µM), the “interaction with immobilized Hsp90” value is reported as “did not bind”. Further, the KD entry on Hsp90 (setting [2]) was “No binding”. Besides, the “inhibition … (CS aggregation kinetics)” value against Hsp90 chaperone activity was “not able to inhibit the chaperone activity of Hsp90”.

As for `N=C(N)NCCC[C@H](N)C(=O)N[C@H]1CCN2C[C@H](O)[C@@H](O)[C@@H]2C1` [Compound 3], the “inhibition of the ATPase activity of Hsp90” value on Hsp90 ATPase activity is recorded as “inhibit the ATPase activity of Hsp90 in a concentration dependent manner”. In addition, at Hsp90 (setting [2]), the Kd came out at 108 ± 1.1 nM and the koff was 2.18±0.23 10^-3 1/s. Moreover, at Hsp90 chaperone activity, the “inhibition … (CS aggregation kinetics)” value was “inhibitory effects were less evident”.

For the compound `CCCCCCc1cn([C@H]2CCN3C[C@H](O)[C@@H](O)[C@@H]3C2)nn1` [Compound 4], the “inhibition of the ATPase activity of Hsp90” value at Hsp90 ATPase activity was “inhibit the ATPase activity of Hsp90 in a concentration dependent manner”. Further, at Hsp90 (setting [2]), binding was characterised by a dissociation constant (Kd) of 45.9 ± 0.5 nM and the koff is reported as 2.05±0.42 10^-3 1/s. Also, the “inhibition … (CS aggregation kinetics)” value at Hsp90 chaperone activity is “inhibitory effects were less evident”.

Consider `OCCc1cn([C@H]2CCN3C[C@H](O)[C@@H](O)[C@@H]3C2)nn1` [Compound 5], for which, at Hsp90 (setting [2]), the Kd was found to be 116 ± 1.6 nM and the koff was 2.55±0.35 10^-3 1/s.

In the case of `N[C@@H](Cc1c[nH]c2ccccc12)C(=O)NCc1cn([C@H]2CCN3C[C@H](O)[C@@H](O)[C@@H]3C2)nn1` [Compound 6], on Hsp90 (setting [2]), the affinity, expressed as Kd, was 306.8 ± 2.9 nM and the koff is 4.12±0.81 10^-3 1/s.

In the case of `N[C@H]1CCN2C[C@H](O)[C@@H](O)[C@@H]2C1` [Compound 7], on Hsp90 (setting [2]), the equilibrium dissociation constant (Kd) was 1009 ± 5.8 nM and the koff is 25.6±2.1 10^-3 1/s.

These data come from PMC3423353, “Natural Iminosugar (+)-Lentiginosine Inhibits ATPase and Chaperone Activity of Hsp90” (PLoS ONE, 2012).
